Test results taken from patent US20130337564A1, “Treatment of Pluripotent Cells” (Janssen Biotech, Inc., priority 2012, published 2013).
Several values for one entry are separate records, joined by “and”; a condition that tells them apart may be missing. Equal entries are not always repeated.

Experiments:
[1] = test system: human embryonic stem cells (H9 or H1 lines); experiment: Plate reader (MTS) proliferation assay; format: cell-based; conditions: for activity at 10 µM: Homo sapiens, Embryonic stem cell, 96 h; for activity at 10 µM / % Control Value (proliferation): 10 μM test compound with 100 ng/ml activin A on days 1-2, MTS OD490 on day 4, vs Activin A/Wnt3a positive control, strong and moderate hits; for Average: average of replicate raw data; for Raw Data: replicate wells, plate reader proliferation screen of GSK-3B inhibitors
Procedure: Maintenance of human embryonic stem cells (H9 or H1 lines) was conducted as described in Example 1. Colonies of cells were maintained in an undifferentiated, pluripotent state with passage on average every four days. Passage was performed by exposing cell cultures to a solution of collagenase (1 mg/ml; Sigma-Aldrich) for 10 to 30 minutes at 37° C. followed by gentle scraping with a pipette tip to recover cell clusters. Clusters were allowed to sediment and washed to remove residual collagenase. Cell clusters were split at a ratio of 1:3 monolayer area for routine culture or a 1:1 ratio for immediate assay. The human embryonis stem cell lines used for these examples were maintained at passage numbers less than 50 and routinely evaluated for normal karyotypic phenotype as well as absence of mycoplasm contamination.
Cell clusters used in assay were evenly resuspended in normal culture medium and plated into MATRIGEL-coated 96-well Packard VIEWPLATES (PerkinElmer) in volumes of 100 μl/well. MEF conditioned medium supplemented with 8 ng/ml bFGF) was used for initial plating and recovery. Daily feeding was conducted by aspirating spent culture medium from each well and replacing with an equal volume of fresh medium. Plates were maintained at 37° C. in a humidified box, 5% CO2 throughout the duration of assay.
Primary screening assays were initiated by aspirating culture medium from each well followed by three washes in PBS to remove residual growth factors and serum. Test volumes of 80-100 μl per well were added back containing DMEM:F12 base medium (Invitrogen) supplemented with 0.5% FCS (HyClone) and 100 ng/ml activin A (R&D Biosystems) and 10 μM test compound. Positive control wells contained the same medium substituting 10-20 ng/ml Wnt3a (R&D Biosystems). Negative control wells contained base medium with 0.5% FCS without activin A or Wnt3a. Screening compounds were tested in triplicate. Wells were aspirated and fed again with identical solutions on day 2 of the assay. On days 3 and 4, all assay wells were aspirated and converted to DMEM:F 12 supplemented with 2% FCS and 100 ng/ml activin A with the exception of negative control wells which were maintained in DMEM:F12 base medium with 2% FCS.
On day 4 of assay, 15-20 μl of MTS (Promega) was added to each well and plates were incubated at 37° C. for 1.5 to 4 hours. Densitometric readings at OD490 were determined using a Molecular Devices spectrophotometer plate reader. Average readings for replicate sets were calculated along with standard deviation and coefficient of variation. Experimental wells were compared to the Activin A/Wnt3a positive control to calculate a percent control value as a measure of proliferation.
Strong hits are defined as greater than or equal to 120% of control values; moderate hits are defined as falling within the interval of 60-120% of control values. A significant number of compounds induce a proliferative response in this assay.

[2] = test system: human embryonic stem cells (H9 line); experiment: High content screening assay: cell number (proliferative response); format: cell-based; conditions: for fold induction at 10 µM: Homo sapiens, Embryonic stem cell, 10 μM test compound with 100 ng/ml activin A on days 1-2, H9, total cell number by IN Cell Analyzer, strong and moderate hits, read-out: Proliferative Response, Fold over Wnt 3a/AA control; for Proliferative Response Fold over Wnt 3a/AA control: normalised to Wnt 3a/AA control
In short: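 H9 hESCs on MATRIGEL treated days 1-2 with 10 μM compound in DMEM:F12, 0.5% FCS, 100 ng/ml activin A; days 3-4 with 2% FCS plus activin A without compound. Fixed cells immunostained for Sox17 or HNF-3beta with Draq5 nuclear counterstain. Cell number and staining intensity quantified by high-content imaging, 12 fields/well.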

[3] = cell number in the wells analysed for HNF-3b expression
[4] = cell number in the wells analysed for SOX-17 expression

O=C1NC(=O)C(c2cn(-c3cncnc3)c3ccccc23)=C1c1cn(CCO)c2ccccc12 [Compound 230, 3-[1-(2-Hydroxyethyl)-1H-indol-3-yl]-4-(1-pyrimidin-5-yl-1H-indol-3-yl)-1H-pyrrole-2,5-dione]
activity at 10 µM [1]: 147% | Average [1]: 2.0358 | fold induction at 10 µM [2]: 1.31 | Proliferative Response Total cells [2, 3]: 16884 | Proliferative Response Total cells [2, 4]: 20079

CN(CCO)CCCn1nc(C2=C(c3cn(-c4cccnc4)c4ccccc34)C(=O)NC2=O)c2ccccc21 [Compound 198, 3-(1-{3-[(2-Hydroxyethyl)(methyl)amino]propyl}-1H-indazol-3-yl)-4-(1-pyridin-3-yl-1H-indol-3-yl)-1H-pyrrole-2,5-dione]
activity at 10 µM [1]: 70.7% | Average [1]: 1.1253 | Proliferative Response Total cells [2, 3]: 2594 | Proliferative Response Total cells [2, 4]: 2386

CN(C)c1ccc(-n2cc(C3=C(c4nn(CCO)c5ccccc45)C(=O)NC3=O)c3cc(Cl)ccc32)cn1 [Compound 148, 3-{5-Chloro-1-[6-(dimethylamino)pyridin-3-yl]-1H-indol-3-yl}-4-[1-(2-hydroxyethyl)-1H-indazol-3-yl]-1H-pyrrole-2,5-dione]
activity at 10 µM [1]: 106% | Average [1]: 1.4937 | fold induction at 10 µM [2]: 0.799 | Proliferative Response Total cells [2, 3]: 6536 | Proliferative Response Total cells [2, 4]: 12243

OCCC#Cc1nc(-c2ccc(F)cc2)c(-c2ccncc2)n1CCCc1ccccc1 [Compound 158, 4-[4-(4-Fluorophenyl)-1-(3-phenylpropyl)-5-pyridin-4-yl-1H-imidazol-2-yl]but-3-yn-1-ol]
activity at 10 µM [1]: 84.7% | Average [1]: 1.2242 | Proliferative Response Total cells [2, 3]: 6058 | Proliferative Response Total cells [2, 4]: 6376

O=C1NC(=O)C2=C1c1cn(c3ccccc13)CCOCCOCCOCCn1cc2c2ccccc21 [Compound 163, 6,7,9,10,12,13,15,16-Octahydro-23H-5,26:17,22-di(metheno)dibenzo[k,q]pyrrolo[3,4-n][1,4,7,10,19]trioxadiazacyclohenicosine-23,25(24H)-dione]
% Control Value (proliferation) [1]: 142.3% | Average [1]: 1.3242 | Raw Data [1]: 1.3764 and 1.2753 and 1.3208 | Proliferative Response Total cells [2, 3]: 5485 | Proliferative Response Fold over Wnt 3a/AA control [2, 3]: 4.327 fold | Proliferative Response Total cells [2, 4]: 1313 | Proliferative Response Fold over Wnt 3a/AA control [2, 4]: 0.7864 fold

COc1ccccc1C1=C(c2cn(-c3cccnc3)c3ccccc23)C(=O)NC1=O [Compound 216, 3-[2-(Methyloxy)phenyl]-4-(1-pyridin-3-yl-1H-indol-3-yl)-1H-pyrrole-2,5-dione]
activity at 10 µM [1]: 76.9% | Average [1]: 1.1235 | Proliferative Response Total cells [2, 3]: 8479 | Proliferative Response Total cells [2, 4]: 5991

O=C(Nc1ccc(C(=O)N2CC3CSCCN3Cc3ccccc32)c(Cl)c1)c1cc(Cl)cc(Cl)c1 (stereo not drawn) [Compound 166, 3,5-Dichloro-N-[3-chloro-4-(3,4,12,12a-tetrahydro-1H-[1,4]thiazino[3,4-c][1,4]benzodiazepin-11(6H)-ylcarbonyl)phenyl]benzamide]
activity at 10 µM [1]: 180% | Average [1]: 1.6794 | fold induction at 10 µM [2]: 0.621 | Proliferative Response Total cells [2, 3]: 787 | Proliferative Response Total cells [2, 4]: 562

O=C1NC(=O)C(c2nn(CCCO)c3ccccc23)=C1c1cn(-c2cccnc2)c2ccc(Cl)cc12 [Compound 52, 3-(5-Chloro-1-pyridin-3-yl-1H-indol-3-yl)-4-[1-(3-hydroxypropyl)-1H-indazol-3-yl]-1H-pyrrole-2,5-dione]
activity at 10 µM [1]: 136% | Average [1]: 1.0617

CCN1CCOCCOCCn2cc(c3ccccc32)C2=C(C(=O)NC2=O)c2cn(c3ccccc23)CC1 [Compound 103, 14-Ethyl-6,7,9,10,13,14,15,16-octahydro-12H,23H-5,26:17,22-di(metheno)dibenzo[k,q]pyrrolo[3,4-n][1,4,7,10,19]dioxatriacyclohenicosine-23,25(24H)-dione]
% Control Value (proliferation) [1]: 68.7% | Average [1]: 0.5236 | Raw Data [1]: 0.7125 and 0.3347

O=C1NC(=O)C(c2cn(CCCO)c3ncccc23)=C1c1ccccc1C(F)(F)F [Compound 16, 3-[1-(3-Hydroxypropyl)-1H-pyrrolo[2,3-b]pyridin-3-yl]-4-[2-(trifluoromethyl)phenyl]-1H-pyrrole-2,5-dione]
activity at 10 µM [1]: 85.5% | Average (of Raw Data) ([1]; plate reader raw signal, mean of replicate wells, proliferation of human embryonic stem cells): 0.8575

O=C1NC(=O)C2=C1c1cn(c3ccccc13)CCOCCOCCN(Cc1cccs1)CCn1cc2c2ccccc21 [Compound 133, 14-(2-Thienylmethyl)-6,7,9,10,13,14,15,16-octahydro-12H,23H-5,26:17,22-di(metheno)dibenzo[k,q]pyrrolo[3,4-n][1,4,7,10,19]dioxatriazacyclohenicosine-23,25(24H)-dione]
% Control Value (proliferation) [1]: 149.3% | Average [1]: 1.0839 | Raw Data [1]: 1.0786 and 1.0891

CN1CCN(C)CCn2cc(c3ccccc32)C2=C(C(=O)NC2=O)c2cn(c3ccccc23)CC1 [Compound 111, 8,11-Dimethyl-6,7,8,9,10,11,12,13-octahydro-20H-5,23:14,19-di(metheno)dibenzo[k,q]pyrrolo[3,4-n][1,4,7,10]tetraazacyclooctadecine-20,22(21H)-dione]
% Control Value (proliferation) [1]: 128.7% | Average [1]: 0.8784 | Raw Data [1]: 1.0689 and 0.6879

CN(C)CCCn1c2c(c3ccccc31)C1=C(C(=O)NC1=O)N(c1cccc(Cl)c1)C2 [Compound 101, 4-(3-Chlorophenyl)-6-[3-(dimethylamino)propyl]-5,6-dihydropyrrolo[3′,4′:5,6]pyrido[3,4-b]indole-1,3(2H,4H)-dione]
activity at 10 µM [1]: 155% | Average [1]: 1.0316

O=C1NC(=O)C(c2cn(CCCO)c3ncccc23)=C1c1cnccn1 [Compound 47, 3-[1-(3-Hydroxypropyl)-1H-pyrrolo[2,3-b]pyridin-3-yl]-4-pyrazin-2-yl-1H-pyrrole-2,5-dione]
fold induction at 10 µM [2]: 1.37 | Proliferative Response Total cells [2, 3]: 6908 | Proliferative Response Total cells [2, 4]: 10447

O=C1NC(=O)C2=C1c1cn(c3ccccc13)CCOCCOCCN(Cc1cccc3ccccc13)CCn1cc2c2ccccc21 [Compound 136, 14-(Naphthalen-1-ylmethyl)-6,7,9,10,13,14,15,16-octahydro-12H,23H-5,26:17,22-di(metheno)dibenzo[k,q]pyrrolo[3,4-n][1,4,7,10,19]dioxatriazacyclohenicosine-23,25(24H)-dione]
% Control Value (proliferation) [1]: 128.8% and 125.7% | Average [1]: 0.9509 and 0.9309 | Raw Data [1]: 0.8618 and 1.0400 and 0.8430 and 1.0187

CN1CCOCCOCCN(C)CCn2cc(c3ccccc32)C2=C(C(=O)NC2=O)c2cn(c3ccccc23)CC1 [Compound 112, 12,21-Dimethyl-11,12,13,14,16,17,20,21,22,23-decahydro-1H,10H,19H-9,4:24,29-di(metheno)dibenzo[k,q]pyrrolo[3,4-n][1,4,7,10,19,22]dioxatetraazacyclotetracosine-1,3(2H)-dione]
% Control Value (proliferation) [1]: 132.8% | Average [1]: 0.9024 | Raw Data [1]: 1.0444 and 0.7603

O=C1NC(=O)C(c2cn(CCOCCOCCO)c3ccccc23)=C1c1cn(CCO)c2ccccc12 [Compound 110, 3-[1-(2-Hydroxyethyl)-1H-indol-3-yl]-4-{1-[2-({2-[(2-hydroxyethyl)oxy]ethyl}oxy)ethyl]-1H-indol-3-yl}-1H-pyrrole-2,5-dione]
activity at 10 µM [1]: 161% | Average [1]: 1.0686
